Measurements taken from patent US12636325B2, “Probiotic compositions for treating and preventing colorectal cancer” (The Chinese University of Hong Kong, priority 2021, dated 2026).

Experiments:
Apc^min/+ mice [1] = test: Intestinal tumorigenesis in Apc^Min/+ mice gavaged with L. gallinarum; assay type: in vivo; conditions: male and female Apc^Min/+ mice with CH-223191 treatment
Experimental: […] Apc^Min/+ mice at 5 to 6 weeks old were divided into 3 groups with or without CH-223191 treatment: (1) control; (2) E. coli MG1655; and (3) L. gallinarum. L. gallinarum and E. coli MG1655 were cultured in MRS broth (Difco Laboratories, Detroit, MN) and BHI broth, respectively. After one day, 1.0×10^8 colony-forming units (CFUs) bacteria were collected and resuspended in 100 ul PBS. Mice were gavaged once daily for 8 weeks and body weight and stool were examined weekly.
Mouse colonoscopy (Karl Storz Endoskope, Tuttlingen, Germany) was performed prior to sacrifice. The colonoscope was inserted into the anus and advanced proximally under direct visualization, facilitated by air insufflation, and representative pictures of the colon tumor from each group were recorded. After 8 weeks of gavage, mice were anaesthetized and sacrificed. Small intestines and colons of mice were longitudinally opened and rinsed with PBS. Total number of tumors in small intestine and colon were recorded. Size of each tumor was measured using previous published formula^42. All animal studies were performed in accordance with guidelines approved by the Animal Experimentation Ethics Committee of The Chinese University of Hong Kong.
To investigate the effect of L. gallinarum on colorectal tumorigenesis, Apc^Min/+ mice were first used. […]

[2] = test system: CRC cell lines (HCT116 and LoVo); test: Cell viability (MTT) assay, CRC cell lines; assay type: cell-based
Experimental: After culturing L. gallinarum or E. coli MG1655 for 1-2 days, the bacterial concentration in each culture medium was measured using NanoDrop spectrophotometer (NanoDrop Technologies, Wilmington, DE). BHI cultures were diluted to ensure equal concentrations of L. gallinarum and E. coli. Culture supernatants were then collected by centrifugation at 5,000 rpm for 10 minutes, followed by sterile filtration with a 0.22-μm membrane. Filtrates were collected and termed as L. gallinarum culture supernatant (LGCS) or E. coli MG1655 culture supernatant (ECCS). Bacterial culture supernatant was separated into low-molecular-weight (LMW) and high-molecular-weight (HMW) using Amicon Ultra-15 Centrifugal Filter Units with a pore size of 3 kilodalton (kDa, Millipore, Bedford, MA). After centrifugation in a swinging bucket rotor at 4,000 g for 30 minutes, cells were cultured in medium containing […] or control broth (LMW, 10%; HMW, 1%). The bacterial supernatants were heated at 100° C. for 30 minutes or treated with proteinase k (50 ug/ml; QIAGEN GmbH, Hilden, Germany). […] Cell proliferation was measured by MTT assay for 5 consecutive days. The amount of MTT formazan product was determined by measuring absorbance at a wavelength of 570 nm (OD570) with a microplate reader (Multiskan GO Microplate Spectrophotometer, Thermo Scientific, Vantaa, Finland). […]

[3] = target: T1, aryl hydrocarbon receptor (AhR) (Homo sapiens, UniProt P35869); test: Transcription of AhR after AhR antagonist; assay type: cell-based; conditions: 100 nM
T1 construct: endogenous in cells
T1 sequence (P35869 11-848): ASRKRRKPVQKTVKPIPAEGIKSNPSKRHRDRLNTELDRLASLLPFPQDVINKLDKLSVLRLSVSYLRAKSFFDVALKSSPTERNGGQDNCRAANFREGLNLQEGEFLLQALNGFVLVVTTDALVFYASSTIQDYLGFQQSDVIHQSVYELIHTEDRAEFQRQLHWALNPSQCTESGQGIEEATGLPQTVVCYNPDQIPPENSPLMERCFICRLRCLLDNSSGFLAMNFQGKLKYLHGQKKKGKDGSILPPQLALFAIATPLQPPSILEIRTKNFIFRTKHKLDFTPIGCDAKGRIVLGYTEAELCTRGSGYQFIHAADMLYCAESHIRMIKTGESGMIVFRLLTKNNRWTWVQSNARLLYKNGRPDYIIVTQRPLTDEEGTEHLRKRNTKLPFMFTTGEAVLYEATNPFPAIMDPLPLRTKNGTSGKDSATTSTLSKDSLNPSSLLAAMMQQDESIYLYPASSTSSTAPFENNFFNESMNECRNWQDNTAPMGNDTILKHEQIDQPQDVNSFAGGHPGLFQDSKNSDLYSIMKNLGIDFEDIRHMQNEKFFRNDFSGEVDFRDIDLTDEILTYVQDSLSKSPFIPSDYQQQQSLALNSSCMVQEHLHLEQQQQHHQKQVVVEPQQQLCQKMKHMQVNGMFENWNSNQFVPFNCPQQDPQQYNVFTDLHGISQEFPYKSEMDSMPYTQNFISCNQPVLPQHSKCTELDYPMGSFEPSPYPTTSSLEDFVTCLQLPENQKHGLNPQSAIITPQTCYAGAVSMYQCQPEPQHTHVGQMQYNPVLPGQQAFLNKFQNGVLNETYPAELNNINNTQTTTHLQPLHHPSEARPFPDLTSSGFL

[4] = test system: CRC cell lines, HCT116 and LoVo; test: Apoptosis assay (Annexin V-PE / 7-AAD flow cytometry), CRC cell lines; assay type: cell-based; conditions: FIG. 18F
Experimental: Cells were plated on 6-well plates 24 hours prior to treatment, and cultured in medium containing 10% […] or control broth. CRC patient-derived organoids were cultured on 6-well plates, and 10% […] or control broth was added to Matrigel and growth medium. After treatment, cells and organoids were digested in 0.25% trypsin-EDTA (Gibco-Invitrogen Corp., Grand Island, NY) and TrypLE, respectively. For apoptosis assay, the proportion of apoptotic cells was evaluated by dual staining with Annexin V-PE and 7-Aminoactinomycin D (7-AAD) (BD Pharmingen, San Jose, CA). Combination of Annexin V-PE and 7-AAD staining distinguished early apoptotic cells (Annexin V+, 7-AAD-) and late apoptotic cells (Annexin V+, 7-AAD+). For cell cycle analysis, cells treated with 10% […] or control broth for 1 day were fixed and stained with 50 μg/ml propidium iodide (PI) (BD Pharmingen). Cell cycle of all stained cells were analyzed using […] cell sorter (BD Biosciences, San Jose, CA).

Apc^min/+ mice [5] = test: Gavage of ILA into Apc^Min/+ mice; assay type: in vivo; conditions: gavage 20 mg/kg
Experimental: Functional investigation of ILA in CRC tumorigenesis was then performed in vivo. […] Moreover, additional experiments were performed to investigate if antagonizing ILA could abrogate L. gallinarum medicated anti-cancer effect. […] Thus, ILA can contribute, at least in part, to the tumor-suppressive effect of L. gallinarum.

| transcription of AhR [3] | SMILES | effect on CRC suppression by L. gallinarum in Apc^Min/+ mice (Apc^min/+ mice [1]) | effect on CRC suppression by L. gallinarum in vitro ([2]; CRC cells pre-treated with 100 nM for 12 hours before culture supernatant) | cell viability of CRC cells ([2]; same amount of ILA as produced from L. gallinarum) | cell apoptosis of CRC cells [4] | cells with positive TUNEL staining, adjacent normal tissues (Apc^min/+ mice [5]) | cells with positive TUNEL staining, tumor tissues (Apc^min/+ mice [5]) | tumor number (Apc^min/+ mice [5]) | tumor size (Apc^min/+ mice [5]) |
| --- | --- | --- | --- | --- | --- | --- | --- | --- | --- |
| significantly suppressed | Cc1ccccc1N=Nc1ccc(NC(=O)c2ccnn2C)c(C)c1 [CH-223191] | abolished the effect of L. gallinarum in suppressing CRC | abolished the effect of L. gallinarum in suppressing CRC |  |  |  |  |  |  |
|  | O=C(O)C(O)Cc1c[nH]c2ccccc12 (stereo not drawn) [ILA, indole-3-lactic acid] |  |  | decreased substantially | significantly increased | but not in adjacent normal tissues | increased | significantly reduced | significantly reduced |
